Target: T1, DGKE (Diacylglycerol kinase epsilon) (Homo sapiens, UniProt P52429)
T1 construct: expressed in transfected cells; host or cells: SILAC HEK293T, membrane fraction
T1 sequence (P52429 1-567): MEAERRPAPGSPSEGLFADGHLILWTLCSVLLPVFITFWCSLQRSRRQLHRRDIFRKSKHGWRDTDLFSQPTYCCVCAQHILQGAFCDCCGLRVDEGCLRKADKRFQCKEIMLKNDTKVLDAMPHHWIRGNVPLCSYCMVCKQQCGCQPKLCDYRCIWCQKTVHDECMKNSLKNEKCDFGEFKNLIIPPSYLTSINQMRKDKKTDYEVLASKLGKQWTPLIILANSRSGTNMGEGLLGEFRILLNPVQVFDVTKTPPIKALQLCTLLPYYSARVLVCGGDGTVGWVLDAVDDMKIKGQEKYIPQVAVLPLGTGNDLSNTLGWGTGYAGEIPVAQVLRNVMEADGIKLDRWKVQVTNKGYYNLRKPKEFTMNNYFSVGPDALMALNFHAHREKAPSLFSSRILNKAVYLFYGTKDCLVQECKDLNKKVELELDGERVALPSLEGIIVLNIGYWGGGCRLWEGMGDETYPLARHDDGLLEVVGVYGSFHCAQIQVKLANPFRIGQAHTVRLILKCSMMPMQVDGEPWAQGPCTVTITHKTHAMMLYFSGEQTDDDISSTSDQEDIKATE
Test: SILAC LC-MS ATP acyl phosphate probe competition, recombinant DGK-HEK293T lysates
Format: binding
Conditions: site DAGKa (K392); membrane fraction; ATP 1 mM; Ketanserin, Ritanserin 100 μM; RF001 1 mM
From the text: Recombinant DGK proteins were produced by transient transfection of HEK293T cells with recombinant DNA. pDONR223-DGKK was a gift from William Hahn & David Root (Addgene plasmid #23487). pCSF107mT-GATEWAY-3′-FLAG was a gift from Todd Stukenberg (Addgene plasmid #67619). pCSF107mT-DGKK-FLAG construct was generated by recombination of the Addgene plasmids using the Gateway cloning system (Invitrogen). All other vectors were gifted to Dr. Kevin Lynch (University of Virginia, School of Medicine) by Dr. Kaoru Goto (Yamagata University, School of Medicine) and Dr. Fumio Sakane (Chiba University) and were kindly shared with us: pcDNA3-FLAG-DGKA (rat), pCMV-Tag2B-FLAG-DGKQ (human), pcDNA3-DGKE-3×Flag (human), and pCMV-SPORT6-HA-DGKZ (human). HEK293T cells were plated at a concentration of 400,000 cells in complete DMEM and grown to 50-60% confluency. A polyethyleneimine (PEI) stock solution was prepared (1 mg/mL, pH 7.4) and filter sterilized. Serum-free DMEM (600 μL) was mixed gently with 2.6 μg DNA and 20 μL of sterile PEI (1 mg/mL, pH 7.4) in a sterile microfuge tube. Mixtures were incubated for 30 min at 25° C. The mixture was then added drop-wise to each 10 cm^2 plate, rocked back and forth to mix, and placed back in the incubator. Cell pellets were harvested after two full days of growth, snap-frozen in liquid N2, and stored at −80° C. until use. Recombinant proteins were produced by transient transfection in SILAC HEK293T cells using the procedure described above, except that cells were plated at a concentration of 1×10^6 cells per 10 cm^2 plate and grown to ˜70% confluency prior to introducing transfection mixture.
Cell pellets were resuspended in kinase buffer (Dulbecco's PBS (DPBS, Hyclone), 20 mM MgCl2, EDTA-free protease inhibitors (Pierce)) and then lysed by sonication (3×1 sec pulse, 20% amplitude). The cell lysates were then subjected to centrifugation (100,000×g, 45 min at 4° C.) to isolate the cytosolic fraction in the supernatant and the membrane fraction as a pellet. […] Protein concentrations were measured using the Bio-Rad DC protein assay. […]

| SILAC ratio, DGKE DAGKa probe-modified peptide | Compound |
| --- | --- |
| 1.3 | O=C(c1ccc(F)cc1)C1CCN(CCn2c(=O)[nH]c3ccccc3c2=O)CC1 [Ketanserin] |
| 0.7 | Fc1ccc(C(=C2CCNCC2)c2ccc(F)cc2)cc1 [RF001, 4-(Bis(4-fluorophenyl)methylene) piperidine] |

| Compound | SILAC ratio, DGKE DAGKa probe-modified peptide |
| --- | --- |
| Cc1nc2sccn2c(=O)c1CCN1CCC(=C(c2ccc(F)cc2)c2ccc(F)cc2)CC1 [Ritanserin] | 1.0 |

Source: patent publication US12643867B2, “Compositions and uses thereof” (University of Virginia Patent Foundation, priority 2017, dated 2026)
